Experimental data as given in ChEMBL document CHEMBL1201862, “PubChem BioAssay data set” (2004).
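All cell lines were grown in 96-well plates and treated with compound for 48 hours. At the GI50, growth is halved.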 The source made the active and inactive calls. No stated cut-off is given here; in the data, active = GI50 up to about 1.1 µM and inactive = higher.

Experiments:
Experiment in all cases: NCI anticancer screen, dose series, 48 h
SF-295 = system: SF-295
OVCAR-4 = system: OVCAR-4
NCI-H522 = system: NCI-H522
EKVX = system: EKVX
Malme-3M = system: Malme-3M
SF-268 = system: SF-268
SW-620 = system: SW-620
UO-31 = system: UO-31
SNB-78 = system: SNB-78
NCI-H460 = system: NCI-H460
HCT-15 = system: HCT-15
NCI-H23 = system: NCI-H23
MDA-MB-435 = system: MDA-MB-435
T47D = system: T47D
SK-OV-3 = system: SK-OV-3
DU-145 = system: DU-145
MDA-MB-231 = system: MDA-MB-231
MDA-N = system: MDA-N
MCF7 = system: MCF7
DMS-273 = system: DMS-273

Structure (SMILES)	GI50 (SF-295)	GI50 (OVCAR-4)	GI50 (NCI-H522)	GI50 (EKVX)	GI50 (Malme-3M)	GI50 (SF-268)	GI50 (SW-620)	GI50 (UO-31)	GI50 (SNB-78)	GI50 (NCI-H460)	GI50 (HCT-15)	GI50 (NCI-H23)	GI50 (MDA-MB-435)	GI50 (T47D)	GI50 (SK-OV-3)	GI50 (DU-145)	GI50 (MDA-MB-231)	GI50 (MDA-N)	GI50 (MCF7)	GI50 (DMS-273)
O=c1c2ccccc2[nH]c(=S)n1-c1ccc(Br)cc1	66.8 µM (inactive)	44.8 µM (inactive)	43.1 µM (inactive)	> 100 µM (inactive)	> 100 µM (inactive)	90.8 µM (inactive)	87.1 µM (inactive)	92.5 µM (inactive)	> 100 µM (inactive)	42.9 µM (inactive)	71.9 µM	51.9 µM (inactive)	–	–	–	–	–	–	–	–
COC(=O)C1C(O)C(C)C(O)C(C)(O)C=C(C)C2=C3C(=C(C)C(=O)c4c(O)c(c(C)c(OC(C)=O)c43)NC(=O)C(C)=C/C=C\C(C)(O)C(O)C(C)C1O)OCO2 (stereo not drawn)	> 100 µM (inactive)	56.4 µM (inactive)	88.3 µM (inactive)	> 100 µM (inactive)	33.7 µM (inactive)	75.2 µM (inactive)	40.8 µM (inactive)	91.6 µM (inactive)	–	> 100 µM (inactive)	> 100 µM	> 100 µM (inactive)	33.9 µM (inactive)	67.9 µM (inactive)	> 100 µM (inactive)	> 100 µM (inactive)	32.5 µM (inactive)	40.3 µM (inactive)	41.3 µM (inactive)	–
COc1cc(-c2n[nH]cc2CCCC(=O)Nc2ccccc2[N+](=O)[O-])ccc1O	> 100 µM (inactive)	> 100 µM (inactive)	94 µM (inactive)	64.9 µM (inactive)	19.2 µM (inactive)	> 100 µM (inactive)	59.3 µM (inactive)	79.8 µM (inactive)	–	–	64.6 µM	> 100 µM (inactive)	–	–	> 100 µM (inactive)	–	–	–	–	66.7 µM (inactive)
CCOc1cc(NC(C)=O)ccc1C(=O)NN1C(=O)CSC1c1ccc(O)c(OC)c1 (stereo not drawn)	50.8 µM (inactive)	39.9 µM (inactive)	37.8 µM (inactive)	42.7 µM (inactive)	46.8 µM (inactive)	71.4 µM (inactive)	87.7 µM (inactive)	10.8 µM (inactive)	–	43.5 µM (inactive)	40.8 µM	61.7 µM (inactive)	46.2 µM (inactive)	32.4 µM (inactive)	93.5 µM (inactive)	> 100 µM (inactive)	53.8 µM (inactive)	54.7 µM (inactive)	44.7 µM (inactive)	–
N#CCCN(c1ccc(/C=C2\N=C(c3ccc(Cl)cc3)OC2=O)cc1)S(=O)(=O)c1ccccc1	> 100 µM (inactive)	> 100 µM (inactive)	> 100 µM (inactive)	> 100 µM (inactive)	–	> 100 µM (inactive)	> 100 µM (inactive)	> 100 µM (inactive)	–	> 100 µM (inactive)	> 100 µM	> 100 µM (inactive)	–	–	> 100 µM (inactive)	–	–	–	–	> 100 µM (inactive)
CN(C)CCn1c2c3ccccc3ccc2c2oc(=O)c3ccccc3c21	9.04 µM (inactive)	6.44 µM (inactive)	9.46 µM (inactive)	12.6 µM (inactive)	9.86 µM (inactive)	2.71 µM (inactive)	4 µM (inactive)	1.61 µM (inactive)	19.7 µM (inactive)	2.79 µM (inactive)	8.34 µM	6.3 µM (inactive)	–	–	0.895 µM (active)	–	–	–	–	–
c1ccc2c(c1)CCc1c-2n(CCN2CCOCC2)c2ccccc12	28.3 µM (inactive)	> 100 µM (inactive)	13.3 µM (inactive)	> 100 µM (inactive)	13.6 µM (inactive)	> 100 µM (inactive)	> 100 µM (inactive)	> 100 µM (inactive)	–	26.5 µM (inactive)	> 100 µM	> 100 µM (inactive)	> 100 µM (inactive)	> 100 µM (inactive)	26 µM (inactive)	> 100 µM (inactive)	> 100 µM (inactive)	> 100 µM (inactive)	> 100 µM (inactive)	–
